Structures are written as SMILES.

In assay [1] the target is T1, Uridine phosphorylase 1 (Homo sapiens, UniProt Q16831).
T1 construct: gene UPP1
The experiment in a line: thermal shift assay (DSLS), concentration-dependent; enhanced by […] ribose-1-phosphate. Format: binding. As to conditions: read-out: ΔTagg (NA+R1P).

The target in assay [2] is T1, Uridine phosphorylase 1. The experiment in a line: HPLC enzyme kinetics with uridine (Lineweaver-Burk); also thermal shift ([…]°C at […]). Format: biochemical.
Another assay deals with T2, deoxycytidine kinase (Homo sapiens, UniProt P27707).
T2 construct: gene DCK
T2 sequence (P27707 whole entry): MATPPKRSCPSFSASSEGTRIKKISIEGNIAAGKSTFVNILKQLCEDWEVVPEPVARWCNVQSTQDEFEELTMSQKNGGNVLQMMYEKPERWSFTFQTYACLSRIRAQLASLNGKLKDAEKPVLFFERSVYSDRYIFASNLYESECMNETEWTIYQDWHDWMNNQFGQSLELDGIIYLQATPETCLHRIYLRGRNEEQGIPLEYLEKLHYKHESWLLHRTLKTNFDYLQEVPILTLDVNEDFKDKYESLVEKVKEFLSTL
The experiment in a line: thermal shift assay (DSLS), concentration-dependent. The note with it: read-out: 500 μM NA (+1 mM ATP). The assay is classed as binding.

Assay [3] addresses T3, Guanine deaminase (Homo sapiens, UniProt Q9Y2T3).
T3 construct: gene GDA
T3 sequence (Q9Y2T3 1-454): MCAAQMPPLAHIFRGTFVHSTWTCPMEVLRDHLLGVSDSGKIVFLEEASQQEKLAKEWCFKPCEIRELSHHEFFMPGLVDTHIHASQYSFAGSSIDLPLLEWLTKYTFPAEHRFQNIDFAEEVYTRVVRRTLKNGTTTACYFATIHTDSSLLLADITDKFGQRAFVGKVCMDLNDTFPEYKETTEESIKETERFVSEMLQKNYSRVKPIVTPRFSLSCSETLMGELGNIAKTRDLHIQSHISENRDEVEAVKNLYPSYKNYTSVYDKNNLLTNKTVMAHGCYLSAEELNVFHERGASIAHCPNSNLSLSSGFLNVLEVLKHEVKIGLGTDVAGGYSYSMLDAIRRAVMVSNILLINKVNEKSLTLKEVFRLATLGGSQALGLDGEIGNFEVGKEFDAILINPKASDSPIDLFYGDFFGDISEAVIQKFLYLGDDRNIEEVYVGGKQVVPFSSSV
Put plainly: co-crystal structure at […] Å; thermal shift (DSLS), concentration-dependent. Format: binding. As to conditions: read-out: delta_Tm.

Assay [4] addresses T3, Guanine deaminase. Put plainly: thermal shift assay (DSLS), concentration-dependent. The assay is classed as binding.
Assay [5] addresses T1, Uridine phosphorylase 1. The assay is described as above. The assay is classed as binding. The note with it: read-out: delta_Tm.

T1 sequence (Q16831 whole entry): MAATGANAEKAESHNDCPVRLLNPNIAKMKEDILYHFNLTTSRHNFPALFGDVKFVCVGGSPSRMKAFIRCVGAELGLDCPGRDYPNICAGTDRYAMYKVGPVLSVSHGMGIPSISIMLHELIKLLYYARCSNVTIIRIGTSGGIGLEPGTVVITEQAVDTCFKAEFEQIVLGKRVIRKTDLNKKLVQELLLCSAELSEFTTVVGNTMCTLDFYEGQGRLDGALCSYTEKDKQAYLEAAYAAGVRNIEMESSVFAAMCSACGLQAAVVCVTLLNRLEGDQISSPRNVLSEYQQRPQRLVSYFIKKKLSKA

Turning to `O=c1[nH]c(=O)n([C@H]2C[C@H](O)[C@@H](CO)O2)cc1C(F)(F)F` [trifluridine], the ΔTm at 500 µM at Uridine phosphorylase 1 [1] came out at 3.78 °C.

On to `Nc1ncnc2c1ncn2[C@@H]1O[C@H](CO)[C@@H](O)[C@@H]1O` [vidarabine], for which the Ki – broadly, the dissociation constant of the complex between target and ligand, obtained from inhibition or displacement – on Uridine phosphorylase 1 [2] is 390 µM. On to `Nc1ncn([C@H]2C[C@H](O)[C@@H](CO)O2)c(=O)n1` [Decitabine], for which, on deoxycytidine kinase, the ΔTm at 500 µM stood at 7.29 °C. Take `CC(C)[C@H](N)C(=O)OCCOCn1cnc2c(=O)[nH]c(N)nc21` [valaciclovir]: at Guanine deaminase [3], the ΔTm at 1000 µM is ~7 °C. For the compound `Nc1nc2c(ncn2COCCO)c(=O)[nH]1` [aciclovir], the “thermal shift assay (DSLS), concentration-dependent” value (shortened to “thermal shift assay (DSLS)”) on Guanine deaminase [4] was “Interactions were detected between GDA and valaciclovir, aciclovir, penciclovir, ganciclovir, thioguanine and mercaptopurine”.

As for `Nc1nc2c(ncn2CCC(CO)CO)c(=O)[nH]1` [penciclovir], the “thermal shift assay (DSLS)” value at Guanine deaminase [4] was “Thioguanine, ganciclovir, aciclovir, penciclovir, valaciclovir, flucytosine and idoxuridine showed concentration-dependent stabilization of GDA”. Regarding `Nc1ccn([C@@H]2O[C@H](CO)[C@@H](O)C2(F)F)c(=O)n1` [Gemcitabine], the ΔTm at 500 µM at deoxycytidine kinase worked out at 5.22 °C. In the case of `Nc1nc2nc[nH]c2c(=S)[nH]1` [thioguanine], on Guanine deaminase [4], the “thermal shift assay (DSLS)” value was “followed in decreasing order by thioguanine, acyclovir, penciclovir, ganciclovir and mercaptopurine”. Regarding `O=c1[nH]c(=O)n([C@H]2C[C@H](O)[C@@H](CO)O2)cc1I` [idoxuridine], at Uridine phosphorylase 1 [5], the ΔTm at 500 µM amounted to 1.72 °C.
